From US9951110B2, “Neuropeptides useful as insecticides” (THE STATE OF ISRAEL, MINISTRY OF AGRICULTURE & RURAL …, priority 2013, dated 2018)
Square brackets hold non-standard residues; d marks the D form. Ends that are not written are not given here. * marks the point of attachment. Cyclohexyl = cyclohexyl group capping the N-terminus, C1CCC(*)CC1; Fmoc = O=C(OCC1c2ccccc2-c2ccccc21)*

What was measured:
[1] = system: Spodoptera littoralis larvae; assay: Melanotropic inhibitory activity: injection with a stimulator (PBAN, PT, LPK, DH); format: in vivo; details: for Melanotropic inhibitory activity, stimulator DH: injected with DH (diapause hormone); for Melanotropic inhibitory activity, stimulator DH / Melanotropic inhibitory activity, stimulator LPK / Melanotropic inhibitory activity, stimulator PBAN / Melanotropic inhibitory activity, stimulator PT: 100 pm; for Melanotropic inhibitory activity, stimulator LPK: injected with LPK (leucopyrokinin); for Melanotropic inhibitory activity, stimulator PBAN: injected with PBAN, inhibition = 100 minus % melanization with vs without peptide; for Melanotropic inhibitory activity, stimulator PT: injected with PT (pheromonotropin); for inhibition of melanin synthesis stimulated by LPK: stimulator LPK; for inhibition of melanin synthesis stimulated by PBAN: stimulator PBAN; for inhibition of melanin synthesis stimulated by PT: stimulator PT
From the text: FIG. 12. is a graph showing the melanotropic inhibitory activity of the peptides of the invention against different stimulators of the PK/PBAN family: PBAN, PT (pheromonotropin), LPK (leucopyrokinin), DH (diapause hormone). • Degree of cuticular melanization is expressed as a percentage of the melanization obtained by injection the elicitor itself (PBAN, PT, LPK or DH) in the absence of the tested peptide (not shown). Statistical analysis compared the degree of melanization in the presence and absence of the tested peptide with any given elicitor. An asterisk indicates a significant difference between the degree of melanization obtained in the presence of the peptide. This assay is used to test the agonistic properties of the tested peptides (in adult females), and to determine the peptides melanotropic agonistic or antagonistic properties (in larvae). It was also used to determine the activity of peptides that were stored outdoors for different amounts of time. The peptides are injected into either adult female insects (e.g. moths) at photophase (when pheromone is not synthesized naturally, but the insect has the ability to produce pheromone upon stimulation with a agonist) or into 5th instar larvae. Agonistic properties were tested by injection of the peptides alone; antagonistic properties were determined by injection of the peptide together with a stimulator. The ability of the peptides to inhibit cuticular melanin synthesis was tested in Spodoptera littoralis larvae. Inhibitory activity was tested by injecting the peptides to Spodoptera littoralis larvae together with a given stimulator: PBAN, PT, LPK and DH. Inhibition is expressed as 100 minus the ratio in percentage (%) between the extents of cuticular melanization obtain in the presence and absence of the tested peptide (Table 2).

[2] = system: Heliothis peltigera female moths; assay: Topical application: inhibition of sex pheromone biosynthesis (cuticular bioavailability); format: in vivo; details: for lowering of pheromone content compared to the solvent / inhibition of pheromone biosynthesis: 10 pmol; for comparison of activity in IIS vs. tap water: topical application
Description: FIG. 2. is a graph showing the effect of topically applied peptides on the inhibition of sex pheromone biosynthesis in Heliothis peltigera female moths. • The tested peptides are those listed in Table 1 (1-10, respectively). • Peptides were tested at a concentration of 10 pmol and were applied in IIS (0.5% ethanol, 0.05% Tween-80 in DDW), and DDW for 1 h. • Sex pheromone content is expressed as a percentage of the endogenous pheromone content obtained using control untreated moths (defined as 100%). Statistical analysis compared pheromone content in the presence of each peptide with that obtained with the corresponding solvents themselves (indicated by an asterisk).
FIG. 3A and FIG. 3B are graphs showing the dose response of Ac-A-dPhe-4 (3A) or Ac-A-dPhe-6 (3B) on inhibition of sex pheromone biosynthesis in Heliothis peltigera female moths. Peptides were applied in DDW for 1 h. • Sex pheromone content is expressed as a percentage of the endogenous pheromone content obtained using control untreated moths (defined as 100%). Statistical analysis compared pheromone content in the presence of each peptide at the indicated concentrations with that obtained with the solvent itself (indicated by an asterisk). A similar statistical analysis was also made against the pheromone content of untreated moths (indicated by #). […] Differences in the potency of the peptides at the indicated concentrations are depicted by letters.
FIG. 4. is a graph showing the time response of 1 nmol Ac-A-dPhe-4 and Ac-A-dPhe-6 (applied in DDW) on inhibition of sex pheromone biosynthesis in Heliothis peltigera female moths. • Sex pheromone content is expressed as a percentage of the endogenous pheromone content obtained using control untreated moths (defined as 100%). Statistical analysis compared pheromone content in the presence of each peptide at the indicated times with that obtained with the solvent itself at the same time point (indicated by an asterisk). […] Differences in the potency of the peptides at the indicated time points are depicted by letters. (Ac-A-dPhe-4: small letters; Ac-A-dPhe-6: capital letters).
FIG. 5A to FIG. 5C are graphs showing the effect of topically applied peptides on inhibition of sex pheromone biosynthesis in Heliothis peltigera female moths. • The tested peptides are those listed in Table 1 (1-6, respectively). Peptides were tested at a concentration of 1000 pmol (5A), 300 pmol (5B) or 100 pmol (5C) and were applied in DDW, DMSO and IIS for 7h. • Sex pheromone content is expressed as a percentage of the endogenous pheromone content obtained using control untreated moths (defined as 100%). Statistical analysis compared pheromone content in the presence of each peptide in a given solvent (DDW, DMSO or ITS) with that obtained with the solvents themselves (indicated by an asterisk).
a) Topical Application (TA)
This assay is used to determine cuticular penetrability.
The tested peptides are applied onto the insect (e.g. moths) at scotophase (when pheromone is naturally synthesized) in a given solvent for the indicated times.
Antagonistic activity was tested at a concentration of 10 pmol and the peptides were topically applied in two solvents: DDW and IIS (FIG. 2). […] Ac-A-dPhe-6 was the second best in IIS inhibiting pheromone biosynthesis by 74%.
Only minor differences in activity is observed as a function of a dose (with the exception of Ac-A-dPhe-4 at 1000 pmol, which inhibited pheromone production to a lesser extent of about 50%).
All experiments were carried out at the scotophase and the peptides were applied one hour before pheromone glands were excised (+5) and tested for pheromone content (at the 6th hour of the scotophase when the pheromone content is at its highest level). The high inhibition obtained under the tested conditions, indicates the extremely fast and high penetrability and bioactivity of the peptides of the invention. […]

Substance	Melanotropic inhibitory activity, stimulator DH [1]	Melanotropic inhibitory activity, stimulator LPK [1]	Melanotropic inhibitory activity, stimulator PBAN [1]	Melanotropic inhibitory activity, stimulator PT [1]	inhibition of melanin synthesis stimulated by LPK [1]	inhibition of melanin synthesis stimulated by PBAN [1]	inhibition of melanin synthesis stimulated by PT [1]	lowering of pheromone content compared to the solvent ([2]; topical, in IIS, 1 h)	activity as a function of carrier ([2]; topical, 300 pmol, 7 h, DDW, IIS, DMSO)	comparison of activity in IIS vs. tap water [2]	inhibition of pheromone biosynthesis ([2]; topical, in IIS, 1 h)	potency as a function of application time ([2]; topical, 1 nmol in DDW, 1, 3 and 7 h)	lowering of pheromone content compared to the solvent ([2]; topical, in DDW, 1 h)	inhibition of pheromone production ([2]; topical in DDW, 1 h, 1000 pmol)	inhibition of pheromone biosynthesis ([2]; topical, in DDW, 1 h)	activity as a function of the dose ([2]; topical, 7 h, in IIS and DMSO, 100, 300, 1000 pmol)
Cyclohexyl-Ala-Ser-Pro-[dPhe]-Leu-amide (Cyclohexyl-ASP[dF]L-NH2; SMILES CC(C)C[C@H](NC(=O)[C@@H](Cc1ccccc1)NC(=O)[C@@H]1CCCN1C(=O)[C@H](CO)NC(=O)[C@H](C)NC1CCCCC1)C(N)=O) [Cyc-A-dPhe-6]	15%	100%	67%	26%	inhibited LPK	inhibited PBAN										
Acetyl-Arg-Tyr-Phe-[dPhe]-Pro-Arg-Leu-amide (Ac-RYF[dF]PRL-NH2; SMILES CC(=O)N[C@@H](CCCNC(=N)N)C(=O)N[C@@H](Cc1ccc(O)cc1)C(=O)N[C@@H](Cc1ccccc1)C(=O)N[C@H](Cc1ccccc1)C(=O)N1CCC[C@H]1C(=O)N[C@@H](CCCNC(=N)N)C(=O)N[C@@H](CC(C)C)C(N)=O) [Ac-dPhe-4]	22%	51%	70%	100%		inhibited PBAN	inhibited PT									
Arg-Tyr-Phe-[dPhe]-Pro-Arg-Leu-amide (RYF[dF]PRL-NH2; N-terminus assumed; SMILES CC(C)C[C@H](NC(=O)[C@H](CCCNC(=N)N)NC(=O)[C@@H]1CCCN1C(=O)[C@@H](Cc1ccccc1)NC(=O)[C@H](Cc1ccccc1)NC(=O)[C@H](Cc1ccc(O)cc1)NC(=O)[C@@H](N)CCCNC(=N)N)C(N)=O) [dPhe-4]	33%	10%	18%	59%				failed to lower pheromone content	lower activity in DDW and IIS compared to DMSO							
Acetyl-Ala-Ser-Pro-[dPhe]-Leu-amide (Ac-ASP[dF]L-NH2; SMILES CC(=O)N[C@@H](C)C(=O)N[C@@H](CO)C(=O)N1CCC[C@H]1C(=O)N[C@H](Cc1ccccc1)C(=O)N[C@@H](CC(C)C)C(N)=O) [Ac-A-dPhe-6]	29%	0%	63%	100%	inhibited LPK	inhibited PBAN	inhibited PT			No differences	74%	did not differ				
Fmoc-Ala-[dPhe]-Pro-Arg-Leu-amide (Fmoc-A[dF]PRL-NH2; SMILES CC(C)C[C@H](NC(=O)[C@H](CCCNC(=N)N)NC(=O)[C@@H]1CCCN1C(=O)[C@@H](Cc1ccccc1)NC(=O)[C@H](C)NC(=O)OCC1c2ccccc2-c2ccccc21)C(N)=O) [Fmoc-A-dPhe-4]	28%	100%	68%	100%						No differences						
Cyclohexyl-Ala-[dPhe]-Pro-Arg-Leu-amide (Cyclohexyl-A[dF]PRL-NH2; SMILES CC(C)C[C@H](NC(=O)[C@H](CCCNC(=N)N)NC(=O)[C@@H]1CCCN1C(=O)[C@@H](Cc1ccccc1)NC(=O)[C@H](C)NC1CCCCC1)C(N)=O) [Cyc-A-dPhe-4]	15%	100%	7%	6%	inhibited LPK			failed to lower pheromone content		No differences						
Arg-Tyr-Phe-Ser-Pro-[dPhe]-Leu-amide (RYFSP[dF]L-NH2; N-terminus assumed; SMILES CC(C)C[C@H](NC(=O)[C@@H](Cc1ccccc1)NC(=O)[C@@H]1CCCN1C(=O)[C@H](CO)NC(=O)[C@H](Cc1ccccc1)NC(=O)[C@H](Cc1ccc(O)cc1)NC(=O)[C@@H](N)CCCNC(=N)N)C(N)=O) [dPhe-6]	15%	78%	49%	74%									failed to lower pheromone content			
Acetyl-Ala-[dPhe]-Pro-Arg-Leu-amide (Ac-A[dF]PRL-NH2; SMILES CC(=O)N[C@@H](C)C(=O)N[C@H](Cc1ccccc1)C(=O)N1CCC[C@H]1C(=O)N[C@@H](CCCNC(=N)N)C(=O)N[C@@H](CC(C)C)C(N)=O) [Ac-A-dPhe-4]	6%	31%	54%	100%	inhibited LPK	inhibited PBAN	inhibited PT			No differences				about 50%	83%	less active at 100 pmol compared to 300 and 1000 pmol
Acetyl-Arg-Tyr-Phe-Ser-Pro-[dPhe]-Leu-amide (Ac-RYFSP[dF]L-NH2; SMILES CC(=O)N[C@@H](CCCNC(=N)N)C(=O)N[C@@H](Cc1ccc(O)cc1)C(=O)N[C@@H](Cc1ccccc1)C(=O)N[C@@H](CO)C(=O)N1CCC[C@H]1C(=O)N[C@H](Cc1ccccc1)C(=O)N[C@@H](CC(C)C)C(N)=O) [Ac-dPhe-6]	35%	8%	59%	100%												
Fmoc-Ala-Ser-Pro-[dPhe]-Leu-amide (Fmoc-ASP[dF]L-NH2; SMILES CC(C)C[C@H](NC(=O)[C@@H](Cc1ccccc1)NC(=O)[C@@H]1CCCN1C(=O)[C@H](CO)NC(=O)[C@H](C)NC(=O)OCC1c2ccccc2-c2ccccc21)C(N)=O) [Fmoc-A-dPhe-6]	35%	100%	67%	100%												
